How the values were obtained:
ER = ER (Homo sapiens (Human), UniProt P03372); assay: In-cell western blot analysis of relative ER percentage (Compounds B1-B278); format: cell-based; settings: ER degradation, 16 hours, read-out: ICW DC50
In short: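 In-cell western: after 16 h compound exposure (0.5% DMSO final), fixed and permeabilized cells are probed with anti-ER plus anti-GAPDH and near-infrared secondaries. Relative ER percentage compares treated wells against untreated and DMSO wells taken as 100%; seeding 40,000 or 10,000 cells/well.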

[1] = Cell growth assay (WST-8) (Compounds B1-B278); format: cell-based; settings: 96 h; T47D cell line; WST-8, 4 days; read-out: Cell Growth Inhibition in T47D cell line IC50
In short: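 Read-out is WST-8 absorbance at 450 nm (2.5 h, 37° C) as a fraction of vehicle control, from three separate repeats. Compound exposure lasted 4 days, starting one day after plating 1500 cells/well.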

Sequence of ER (P03372 whole entry): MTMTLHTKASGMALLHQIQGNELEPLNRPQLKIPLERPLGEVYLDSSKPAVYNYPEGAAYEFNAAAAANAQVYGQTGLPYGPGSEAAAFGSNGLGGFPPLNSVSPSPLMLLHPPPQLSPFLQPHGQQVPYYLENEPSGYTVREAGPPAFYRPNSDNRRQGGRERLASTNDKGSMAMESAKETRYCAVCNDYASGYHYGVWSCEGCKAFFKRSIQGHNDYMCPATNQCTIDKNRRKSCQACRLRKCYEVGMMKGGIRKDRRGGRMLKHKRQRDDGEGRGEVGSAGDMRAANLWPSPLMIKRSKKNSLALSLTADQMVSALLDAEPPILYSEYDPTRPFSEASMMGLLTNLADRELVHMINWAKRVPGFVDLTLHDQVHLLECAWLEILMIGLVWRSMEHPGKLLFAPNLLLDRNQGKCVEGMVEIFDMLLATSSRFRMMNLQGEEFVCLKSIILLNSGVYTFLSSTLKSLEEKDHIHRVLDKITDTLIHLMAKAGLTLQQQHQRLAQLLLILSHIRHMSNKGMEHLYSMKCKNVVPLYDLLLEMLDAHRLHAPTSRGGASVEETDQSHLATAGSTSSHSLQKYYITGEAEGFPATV

Question: Which DC50 (ER) does the source give for `C[C@@H]1Cc2c([nH]c3ccccc23)[C@@H](c2c(F)cc(N3CCC(CN4CCN5c6c(ccc7c6CN(C6CCC(=O)NC6=O)C7=O)OC[C@@H]5C4)CC3)cc2F)N1CC(F)F` (stereo partly drawn) [Compound B173, 3-((S)-9-((1-(4-((1R,3R)-2-(2,2-difluoroethyl)-3-methyl-2,3,4,9-tetrahydro-1H-pyrido[3,4-b]indol-1-yl)-3,5-difluorophenyl)piperidin-4-yl)methyl)-3-oxo-1,3,7,7a,8,9,10,11-octahydro-2H-pyrazino[1′,2′:4,5][1,4]oxazino[3,2-e]isoindol-2-yl)piperidine-2,6-dione] here?
Answer: > 100 nM

Question: And the IC50 [1]?
Answer: < 1 nM

Question: Which results are given for `C[C@@H]1Cc2c([nH]c3ccccc23)[C@@H](c2c(F)cc(N3CCC4(CC3)CN(C(=O)CN3CCN5c6ccc7c(c6OC[C@H]5C3)CN(C3CCC(=O)NC3=O)C7=O)C4)cc2F)N1CC(F)F` (stereo partly drawn) [Compound B174, 3-((R)-7-(2-(7-(4-((1R,3R)-2-(2,2-difluoroethyl)-3-methyl-2,3,4,9-tetrahydro-1H-pyrido[3,4-b]indol-1-yl)-3,5-difluorophenyl)-2,7-diazaspiro[3.5]nonan-2-yl)-2-oxoethyl)-1-oxo-1,3,5,5a,6,7,8,9-octahydro-2H-pyrazino[1′,2′:4,5][1,4]oxazino[2,3-e]isoindol-2-yl)piperidine-2,6-dione]?
Answer: DC50 (ER): < 10 nM; IC50 [1]: < 1 nM

Question: With `C[C@@H]1Cc2c([nH]c3ccccc23)[C@@H](c2cnc(N3CCC4(CC3)CN(CC(=O)N3CCN5c6ccc7c(c6OC[C@H]5C3)CN(C3CCC(=O)NC3=O)C7=O)C4)nc2)N1CC(F)(F)F` (stereo partly drawn) [Compound B175, 3-((R)-7-(2-(7-(5-((1R,3R)-3-methyl-2-(2,2,2-trifluoroethyl)-2,3,4,9-tetrahydro-1H-pyrido[3,4-b]indol-1-yl)pyrimidin-2-yl)-2,7-diazaspiro[3.5]nonan-2-yl)acetyl)-1-oxo-1,3,5,5a,6,7,8,9-octahydro-2H-pyrazino[1′,2′:4,5][1,4]oxazino[2,3-e]isoindol-2-yl)piperidine-2,6-dione] as the compound, how does the DC50 (ER) read?
Answer: < 10 nM

Question: What about the IC50 [1] of the same compound?
Answer: 1 to 10 nM

Question: Which results are given for `C[C@@H]1Cc2c([nH]c3ccccc23)[C@@H](c2cnc(N3CCC4(CC3)CN(C(=O)CN3CCN5c6ccc7c(c6OC[C@H]5C3)CN(C3CCC(=O)NC3=O)C7=O)C4)nc2)N1CC(F)F` (stereo partly drawn) [Compound B176, 3-((R)-7-(2-(7-(5-((1R,3R)-2-(2,2-difluoroethyl)-3-methyl-2,3,4,9-tetrahydro-1H-pyrido[3,4-b]indol-1-yl)pyrimidin-2-yl)-2,7-diazaspiro[3.5]nonan-2-yl)-2-oxoethyl)-1-oxo-1,3,5,5a,6,7,8,9-octahydro-2H-pyrazino[1′,2′:4,5][1,4]oxazino[2,3-e]isoindol-2-yl)piperidine-2,6-dione]?
Answer: DC50 (ER): < 10 nM; IC50 [1]: 1 to 10 nM

Question: Which DC50 (ER) does the source give for `C[C@@H]1Cc2c([nH]c3ccccc23)[C@@H](c2c(F)cc(N3CCC4(CC3)CN(CC(=O)N3CCN5c6ccc7c(c6OC[C@H]5C3)CN(C3CCC(=O)NC3=O)C7=O)C4)cc2F)N1CC(F)F` (stereo partly drawn) [Compound B177, 3-((R)-7-(2-(7-(4-((1R,3R)-2-(2,2-difluoroethyl)-3-methyl-2,3,4,9-tetrahydro-1H-pyrido[3,4-b]indol-1-yl)-3,5-difluorophenyl)-2,7-diazaspiro[3.5]nonan-2-yl)acetyl)-1-oxo-1,3,5,5a,6,7,8,9-octahydro-2H-pyrazino[1′,2′:4,5][1,4]oxazino[2,3-e]isoindol-2-yl)piperidine-2,6-dione] here?
Answer: 10 to 100 nM

Question: What about the IC50 [1] of the same compound?
Answer: < 1 nM

Question: What does the source list for `C[C@@H]1Cc2c([nH]c3ccccc23)[C@@H](c2cnc(N3CC4(CC(CN5CCN6c7ccc8c(c7OC[C@H]6C5)CN(C5CCC(=O)NC5=O)C8=O)C4)C3)nc2)N1CC(C)(F)F` (stereo partly drawn) [Compound B178, 3-((R)-7-((2-(5-((1R,3R)-2-(2,2-difluoropropyl)-3-methyl-2,3,4,9-tetrahydro-1H-pyrido[3,4-b]indol-1-yl)pyrimidin-2-yl)-2-azaspiro[3.3]heptan-6-yl)methyl)-1-oxo-1,3,5,5a,6,7,8,9-octahydro-2H-pyrazino[1′,2′:4,5][1,4]oxazino[2,3-e]isoindol-2-yl)piperidine-2,6-dione]?
Answer: DC50 (ER): 10 to 100 nM; IC50 [1]: 1 to 10 nM

Question: With `C[C@@H]1Cc2c([nH]c3ccccc23)[C@@H](c2cnc(N3CC4(CC(CN5CCN6c7ccc8c(c7OC[C@H]6C5)CN(C5CCC(=O)NC5=O)C8=O)C4)C3)nc2)N1CC(F)F` (stereo partly drawn) [Compound B179, 3-((R)-7-((2-(5-((1R,3R)-2-(2,2-difluoroethyl)-3-methyl-2,3,4,9-tetrahydro-1H-pyrido[3,4-b]indol-1-yl)pyrimidin-2-yl)-2-azaspiro[3.3]heptan-6-yl)methyl)-1-oxo-1,3,5,5a,6,7,8,9-octahydro-2H-pyrazino[1′,2′:4,5][1,4]oxazino[2,3-e]isoindol-2-yl)piperidine-2,6-dione] as the compound, how does the DC50 (ER) read?
Answer: 10 to 100 nM

Question: What about the IC50 [1] of the same compound?
Answer: > 10 nM

Question: With `C[C@@H]1Cc2c([nH]c3ccccc23)[C@@H](c2cnc(N3CCC4(CC3)CC(CN3CCN5c6ccc7c(c6OC[C@H]5C3)CN(C3CCC(=O)NC3=O)C7=O)C4)nc2)N1CC(C)(C)F` (stereo partly drawn) [Compound B180, 3-((R)-7-((7-(5-((1R,3R)-2-(2-fluoro-2-methylpropyl)-3-methyl-2,3,4,9-tetrahydro-1H-pyrido[3,4-b]indol-1-yl)pyrimidin-2-yl)-7-azaspiro[3.5]nonan-2-yl)methyl)-1-oxo-1,3,5,5a,6,7,8,9-octahydro-2H-pyrazino[1′,2′:4,5][1,4]oxazino[2,3-e]isoindol-2-yl)piperidine-2,6-dione] as the compound, how does the DC50 (ER) read?
Answer: < 10 nM

Question: And the IC50 [1]?
Answer: 1 to 10 nM

Question: What does the source list for `C[C@@H]1Cc2c([nH]c3ccccc23)[C@@H](c2cnc(N3CCC4(CC3)CC(CN3CCN5c6ccc7c(c6OC[C@H]5C3)CN(C3CCC(=O)NC3=O)C7=O)C4)nc2)N1CC(F)F` (stereo partly drawn) [Compound B181, 3-((R)-7-((7-(5-((1R,3R)-2-(2,2-difluoroethyl)-3-methyl-2,3,4,9-tetrahydro-1H-pyrido[3,4-b]indol-1-yl)pyrimidin-2-yl)-7-azaspiro[3.5]nonan-2-yl)methyl)-1-oxo-1,3,5,5a,6,7,8,9-octahydro-2H-pyrazino[1′,2′:4,5][1,4]oxazino[2,3-e]isoindol-2-yl)piperidine-2,6-dione]?
Answer: DC50 (ER): < 10 nM; IC50 [1]: < 1 nM

Question: For `C[C@@H]1Cc2c([nH]c3ccccc23)[C@@H](c2cnc(N3CC4(CCC(CN5CCN6c7ccc8c(c7OC[C@H]6C5)CN(C5CCC(=O)NC5=O)C8=O)CC4)C3)nc2)N1CC(C)(C)F` (stereo partly drawn) [Compound B182, 3-((R)-7-((2-(5-((1R,3R)-2-(2-fluoro-2-methylpropyl)-3-methyl-2,3,4,9-tetrahydro-1H-pyrido[3,4-b]indol-1-yl)pyrimidin-2-yl)-2-azaspiro[3.5]nonan-7-yl)methyl)-1-oxo-1,3,5,5a,6,7,8,9-octahydro-2H-pyrazino[1′,2′:4,5][1,4]oxazino[2,3-e]isoindol-2-yl)piperidine-2,6-dione], which DC50 (ER) is on record?
Answer: < 10 nM

Question: And the IC50 [1]?
Answer: 1 to 10 nM

Question: Which DC50 (ER) does the source give for `C[C@@H]1Cc2c([nH]c3ccccc23)[C@@H](c2cnc(N3CC4(CCC(CN5CCN6c7ccc8c(c7OC[C@H]6C5)CN(C5CCC(=O)NC5=O)C8=O)CC4)C3)nc2)N1CC(F)F` (stereo partly drawn) [Compound B183, 3-((R)-7-((2-(5-((1R,3R)-2-(2,2-difluoroethyl)-3-methyl-2,3,4,9-tetrahydro-1H-pyrido[3,4-b]indol-1-yl)pyrimidin-2-yl)-2-azaspiro[3.5]nonan-7-yl)methyl)-1-oxo-1,3,5,5a,6,7,8,9-octahydro-2H-pyrazino[1′,2′:4,5][1,4]oxazino[2,3-e]isoindol-2-yl)piperidine-2,6-dione] here?
Answer: < 10 nM

Question: And the IC50 [1]?
Answer: 1 to 10 nM

Question: What does the source list for `C[C@@H]1Cc2c([nH]c3ccccc23)[C@@H](c2cnc(N3CCC(CN4CCN5c6ccc7c(c6OC[C@@H]5C4)CN(C4CCC(=O)NC4=O)C7=O)CC3)nc2)N1CC(C)(C)F` (stereo partly drawn) [Compound B258, 3-((S)-7-((1-(5-((1R,3R)-2-(2-fluoro-2-methylpropyl)-3-methyl-2,3,4,9-tetrahydro-1H-pyrido[3,4-b]indol-1-yl)pyrimidin-2-yl)piperidin-4-yl)methyl)-1-oxo-1,3,5,5a,6,7,8,9-octahydro-2H-pyrazino[1′,2′:4,5][1,4]oxazino[2,3-e]isoindol-2-yl)piperidine-2,6-dione]?
Answer: DC50 (ER): > 100 nM; IC50 [1]: < 1 nM

Question: Which DC50 (ER) does the source give for `C[C@@H]1Cc2c([nH]c3ccccc23)[C@@H](c2cnc(N3CC4(CCC(CN5CCN6c7ccc8c(c7OC[C@H]6C5)CN(C5CCC(=O)NC5=O)C8=O)CC4)C3)nc2)N1CC1(F)CC1` (stereo partly drawn) [Compound B260, 3-((R)-7-((2-(5-((1R,3R)-2-((1-fluorocyclopropyl)methyl)-3-methyl-2,3,4,9-tetrahydro-1H-pyrido[3,4-b]indol-1-yl)pyrimidin-2-yl)-2-azaspiro[3.5]nonan-7-yl)methyl)-1-oxo-1,3,5,5a,6,7,8,9-octahydro-2H-pyrazino[1′,2′:4,5][1,4]oxazino[2,3-e]isoindol-2-yl)piperidine-2,6-dione] here?
Answer: 10 to 100 nM

Question: What about the IC50 [1] of the same compound?
Answer: 1 to 10 nM

Question: What does the source list for `C[C@@H]1Cc2c([nH]c3ccccc23)[C@@H](c2cnc(N3CCC4(CC3)CC(CN3CCN5c6ccc7c(c6OC[C@H]5C3)CN(C3CCC(=O)NC3=O)C7=O)C4)nc2)N1CC1(F)CC1` (stereo partly drawn) [Compound B261, 3-((R)-7-((7-(5-((1R,3R)-2-((1-fluorocyclopropyl)methyl)-3-methyl-2,3,4,9-tetrahydro-1H-pyrido[3,4-b]indol-1-yl)pyrimidin-2-yl)-7-azaspiro[3.5]nonan-2-yl)methyl)-1-oxo-1,3,5,5a,6,7,8,9-octahydro-2H-pyrazino[1′,2′:4,5][1,4]oxazino[2,3-e]isoindol-2-yl)piperidine-2,6-dione]?
Answer: DC50 (ER): 10 to 100 nM; IC50 [1]: 1 to 10 nM

Reference: patent publication US20260007681A1, “INDOLE DERIVATIVES AS ESTROGEN RECEPTOR DEGRADERS” (REGENTS OF THE UNIVERSITY OF MICHIGAN, priority 2022, published 2026)
